Laboratory results as given in patent US20240118263A1, “TARGET FOR SCREENING ANTI-TUMOR DRUG, USE THEREOF AND SCREENING METHOD THEREFOR” (SHENYANG FUYANG PHARMACEUTICAL TECHNOLOGY CO., LTD., priority 2019, published 2024).

Key:
SELH (Sec44→Cys44) = SELH (Sec44→Cys44) (Homo sapiens, UniProt Q8IZQ5, U44C); assay: SPR assay of ISP I with SELH synthesized in bacteria; assay type: binding
Description: Next, the inventors used a thermo-stability assay to confirm SELH was targeted by ISP I in LN229 and 786-O cell lines. The principle of the assay is based on altered protein thermal stabilization/destabilization due to ligand binding in living cells. […] (FIG. 11B and FIG. 12A). To verify further the specificity of ISP I's targeting of SELH, the inventors designed a surface plasmon resonance assay to assess the interaction of ISP I with SELH synthesized in bacteria.
The affinities constant (KD) and kinetics (ka and kd) of ISP I binding to SELH (Sec44→Cys44) were assayed using Biacore 8K (GE Healthcare, Sweden), all at 25° C. […] Coupling conditions were determined by protein isoelectric points. […]
To determine the binding affinity between ISP I and SELH (Sec44→Cys44), a series of ISP I dilutions was analyzed by single-cycle kinetics. […] The ISP I at various gradient concentrations and one zero concentration (running buffer) flowed over the immobilized SELH, with 120 s for binding, followed by disassociation for 120 s, and the obtained response units (RUs) were recorded. The RU values were collected, and the binding affinity data were calculated by kinetic models (1:1 interaction) within Biacore 8K Evaluation Software. The equilibrium dissociation constant (KD) was calculated to evaluate the ability of ISP I to interact with SELH.

IOMM xenograft = assay: IOMM meningioma subcutaneous xenograft model; assay type: in vivo, Nude mice; conditions: 35 mg/kg intraperitoneally daily, vs control
Protocol: For subcutaneous xenografts, NSG mice (6-8 weeks old) from the NCI-Frederick animal facility and Jackson Lab (Bar Harbor, ME USA) were injected with 5×10^6 to 1×10^7 cells subcutaneously in the flank. One week later, the tumor-bearing mice were randomly assigned to different groups and made the tumor volume baseline equivalent and treated with normal saline or Zenomycin (35 mg/kg) everyday intraperitoneally. Tumors were measured using a caliper, and volume was calculated.

[1] = test system: human non-small cell lung cancer cells A549
Protocol: Experimental Materials Human non-small cell lung cancer cells A549, mouse breast cancer cells 4T-1 and mouse melanoma B16-BL6 were purchased from American Type Current Collection (ATCC, Rockville, MD, USA). An RPMI-1640 culture solution containing 10% of fetal calf serum and 2% of glutamine was inoculated with the A549, 4T-1 and B16-BL6 cells, and the cells were incubated at 37° C. in a 5% CO2 incubator.
The compounds were dissolved in DMSO under a sterile condition, and the obtained solutions were diluted to required concentrations by using an RPMI 1640 culture solution, wherein the final concentration of the DMSO was less than 0.5%.
MTT reduction method is used.
A549, 4T-1 and B16-BL6 were used as adherent cells, adherent tumor cells in a logarithmic phase were selected, digested with pancreatin, and then prepared into a cell suspension of 5×10^4/ml with a culture medium containing 10% of calf serum, a 96-well culture plate was inoculated with the cell suspension, wherein each well contained 100 μl of the cell suspension, and incubation was carried out for 24 h at 37° C. and 5% CO2. Replacing was carried out with a new culture solution containing the samples to be detected of different concentrations in the experimental groups, replacing was carried out with a culture solution containing a same volume of solvent in the control group, three parallel wells were set in each group, and incubation was carried out for 48 hours at 37° C. and 5% CO2. The supernate was discarded, careful washing was carried out with PBS twice, 100 μl of a freshly prepared culture medium containing 0.5 mg/ml of MTT was added into each well, and incubation was continued to be carried out at 37° C. for 4 h. The supernatant was carefully discarded, 150 μl of DMSO was added, uniform mixing was carried out for 10 min by using a micro oscillator, and the optical density value was measured at 492 nm by using a microplate reader.
Tumor cell growth inhibition ratio (%)=[A492 (negative control)−A492 (dosing group)]/A492 (negative control)×100%
The median inhibitory concentration (IC50) of the sample is calculated.

Chain of SELH (Sec44→Cys44) (Q8IZQ5 with tags, fused parts or gaps U44C): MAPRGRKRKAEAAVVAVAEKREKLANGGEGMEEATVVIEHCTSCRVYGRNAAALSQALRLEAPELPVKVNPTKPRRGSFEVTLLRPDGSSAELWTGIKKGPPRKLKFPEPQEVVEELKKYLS

SMILES: CO[C@@H]1[C@@H](O[C@@H]2O[C@H](C)[C@@H](O[C@H]3C[C@@](C)(O)[C@@H](OC(=O)CC(C)C)[C@H](C)O3)[C@H](N(C)C)[C@H]2O)[C@@H](CC=O)C[C@@H](C)[C@@H](O[C@H]2CC[C@H](N(C)C)[C@@H](C)O2)/C=C/C=C/C[C@@H](C)OC(=O)C[C@H]1O [Isovalerylspiramycin I, 4″-isovalerylspiramycin I]
- binding to SELH versus other proteins (SELH (Sec44→Cys44)): tightly binds to SELH but does not bind with the other proteins
- tumor size and weight, IOMM xenograft (IOMM xenograft): significantly reduced tumor size and weight
- A549 IC50 cytotoxicity [1]: 1.29 µg/mL
